Results published in patent publication US20240245762A1, “METHODS AND PLATFORMS FOR PROMOTING ANTIGEN-SPECIFIC TOLERANCE IN THE TREATMENT OF TYPE 1 DIABETES AND GRAFT REJECTION AND COMPOSITIONS RELATING THERETO” (University of Maryland, College Park, priority 2021, published 2024).

Tested on: Eα presentation in MHC-II
Experiment: Immunohistochemistry of Eα presentation in MHC-II (Y-ae) around HEVs of LNs
Type: in vivo, mouse
Settings: three daily i.p. injections starting on the day of MP treatment
Text: Immunohistochemistry and histology. The following antibodies were used for immunohistochemistry: ERTR7 (clone sc-73355), CD11c (cloneHL3), Laminin alpha4 (clone 775830), laminin alpha 5 (polyclonal), Foxp3 (clone NRRF-30), Vα2 TCR (clone B20.1). For immunohistochemistry, LNs and spleens were frozen with OCT compound (Scigen Tissue-Plus, Gardena, CA). Frozen sections were cut at 6 μm, fixed with cold acetone, blocked with 5% goat or donkey serum (Jackson ImmunoResearch, West Grove, PA) and incubated with the indicated antibodies and DAPI. […] Images were acquired with a Nikon Eclipse 700 (Nikon, Melville, NY, USA) and analyzed with Volocity image analysis software (Perkin Elmer, Waltham, MA). The positive staining area percentage was quantified based on at least three independent experiments with 3 sections per LN and 3-5 fields/section.
Subsequently, we directly investigated the trafficking and presentation of antigen from MPs in […] LNs using Y-ae, a recently-developed antibody tool. […] At 2 days, Eα presentation localized with HEVs was detected in treated LNs (FIG. 12f), and increased by day 6 (FIG. 12g). […]

CCCCCCCCc1ccc(CCC(N)(CO)CO)cc1 [FTY720]
effect on Eα presentation after Eα MP or Eα/rapamycin MP treatment: did not significantly affect Eα presentation
